From patent publication US20260274833A1 (NiKang Therapeutics, Inc., priority 2022, published 2026)
pIC50: −log10 of the molar value.

Target: T1, CDK2 (Homo sapiens, UniProt P24941)
T1 construct: endogenous in cells; host or cells: OVCAR3 cells
Assay: Phospho-RB measurement in OVCAR3 cells (HTRF phospho-RB cellular kit)
Type: cell-based
Settings: inhibition of RB phosphorylation at S807/811 (HTRF), 24 h compound treatment
How it was run: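 IC50 came from a four-parameter logistic fit of the DMSO-normalized TR-FRET ratio (665/620 nm). That ratio reflects RB phosphorylation at S807/811, read with an HTRF antibody pair 4 h after adding lysate at room temperature.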

pIC50	SMILES
< 5.00	CC(C)(C)c1nc(-c2cccc(NS(=O)(=O)N3CCn4cnnc4C3)c2F)c(-c2ccnc(NC3CCN(S(C)(=O)=O)CC3)n2)s1 [Example 90, N-(3-(2-(tert-butyl)-5-(2-((1-(methylsulfonyl)-piperidin-4-yl)amino)-pyrimidin-4-yl)thiazol-4-yl)~2~fluoro-phenyl)-5,6-dihydro-[1,2,4] triazolo-[4,3-a]pyrazine-7(8H)-sulfonamide]

Same assay, conditions: inhibition of RB phosphorylation at S807/811 (HTRF, TR-FRET ratio 665/620), 24 h compound treatment, 0.3 to 10,000 nM

SMILES	pIC50
CC(C)(C)c1nc(-c2cccc(NS(=O)(=O)N3Cc4ccccc4C3)c2F)c(-c2ccnc(NC3CCN(S(=O)(=O)N4CCNCC4)CC3)n2)s1 [Example 113, N-(3-(2-(tert-butyl)-5-(2-((1-(piperazin-1-ylsulfonyl)piperidin-4-yl)amino)-pyrimidin-4-yl)thiazol-4-yl)-2-fluoro-phenyl)isoindoline-2-sulfonamide]	6.92
CC(C)(C)c1nc(-c2cccc(NS(=O)(=O)N3Cc4cccc(Oc5ccccc5C#N)c4C3)c2F)c(-c2ccnc(NC3CC4(C3)CS(=O)(=O)C4)n2)s1 [Example 219, N-(3-(2-(tert-butyl)-5-(2-((2,2-dioxido-2-thiaspiro[3.3]heptan-6-yl)amino)-pyrimidin-4-yl)thiazol-4-yl)-2-fluorophenyl)-4-(2-cyanophenoxy)-isoindoline-2-sulfonamide]	6.23
CC(C)(C)c1nc(-c2cccc(NS(=O)(=O)N3CCc4ccccc4C3)c2F)c(-c2ccnc(NC3CCN(S(C)(=O)=O)CC3)n2)s1 [Example 74, N-(3-(2-(tert-butyl)-5-(2-((1-(methylsulfonyl)-piperidin-4-yl)amino)-pyrimidin-4-yl)thiazol-4-yl)-2-fluoro-phenyl)-3,4-dihydro-isoquinoline-2(1H)-sulfonamide]	6.74
N=S1(=O)CC2(CC(Nc3nccc(-c4sc(C56CC(C5)C6)nc4-c4cccc(NS(=O)(=O)N5CCc6ccccc65)c4F)n3)C2)C1 (stereo not shown) [Example 271, N-(3-(2-(bicyclo [1.1.1]pentan-1-yl)-5-(2-((2-imino-2-oxido-26-thiaspiro[3.3]-heptan-6-yl)-amino)pyrimidin-4-yl)thiazol-4-yl)-2-fluorophenyl) indoline-1-sulfonamide]	5.09
CN(C)Cc1ccc2c(c1)CN(S(=O)(=O)Nc1cccc(-c3nc(C(C)(C)C)sc3-c3ccnc(NC4CCN(S(C)(=O)=O)CC4)n3)c1F)C2 [Example 171, N-(3-(2-(tert-butyl)-5-(2-((1-(methylsulfonyl)-piperidin-4-yl)amino)-pyrimidin-4-yl)thiazol-4-yl)-2-fluoro-phenyl)-5-((dimethylamino)methyl)-isoindoline-2-sulfonamide]	5.67
N#Cc1ccc2c(c1)N(S(=O)(=O)Nc1cccc(-c3nc(C45CC(C4)C5)sc3-c3ccnc(N[C@H]4[C@@H]5CS(=O)(=O)C[C@@H]54)n3)c1F)CC2 [Example 14, N-(3-(2-(bicyclo [1.1.1]pentan-1-yl)-5-(2-(((1R,5S,6r)-3,3-dioxido-3-thiabicyclo-[3.1.0]-hexan-6-yl)amino)pyrimidin-4-yl)thiazol-4-yl)-2-fluorophenyl)-6-cyanoindoline-1-sulfonamide]	6.91
CC(C)(C)c1nc(-c2cccc(NS(=O)(=O)N3CCCc4ccccc4C3)c2F)c(-c2ccnc(NC3CCN(S(C)(=O)=O)CC3)n2)s1 [Example 80, N-(3-(2-(tert-butyl)-5-(2-((1-(methylsulfonyl)-piperidin-4-yl)amino)-pyrimidin-4-yl)thiazol-4-yl)-2-fluorophenyl)-1,3,4,5-tetrahydro-2H-benzo[c]azepine-2-sulfonamide]	6.77
O=S1(=O)CC2(CC(Nc3nccc(-c4sc(C56CC(C5)C6)nc4-c4cccc(NS(=O)(=O)N5C6CCC5c5ccccc56)c4F)n3)C2)C1 [Example 268, N-(3-(2-(bicyclo [1.1.1]pentan-1-yl)-5-(2-((2,2-dioxido-2-thiaspiro[3.3]heptan-6-yl)amino)-pyrimidin-4-yl)thiazol-4-yl)-2-fluorophenyl)-1,2,3,4-tetrahydro-1,4-epiminonaphthalene-9-sulfonamide]	5.08
CC(C)(C)c1nc(-c2cccc(NS(=O)(=O)N3Cc4cccc(C(F)(F)F)c4C3)c2F)c(-c2ccnc(NC3CC4(C3)CS(=O)(=O)C4)n2)s1 [Example 201, N-(3-(2-(tert-butyl)-5-(2-((2,2-dioxido-2-thiaspiro[3.3]heptan-6-yl)amino)-pyrimidin-4-yl)thiazol-4-yl)-2-fluorophenyl)-4-(trifluoromethyl)-isoindoline-2-sulfonamide]	7.12
C[C@H]1c2ccccc2CN1S(=O)(=O)Nc1cccc(-c2nc(C(C)(C)C)sc2-c2ccnc(NC3CCN(S(C)(=O)=O)CC3)n2)c1F [Example 131, (S)-N-(3-(2-(tert-butyl)-5-(2-((1-(methyl-sulfonyl)piperidin-4-yl)amino)pyrimidin-4-yl)thiazol-4-yl)-2-fluoro-phenyl)-1-methyliso-indoline-2-sulfonamide]	6.80
CNC(=O)c1ccc2c(c1)N(S(=O)(=O)Nc1cccc(-c3nc(C(C)(C)C)sc3-c3ccnc(NC4CCN(S(C)(=O)=O)CC4)n3)c1F)CC2 [Example 151, 1-(N-(3-(2-(tert-butyl)-5-(2-((1-(methyl-sulfonyl)piperidin-4-yl)amino)pyrimidin-4-yl)thiazol-4-yl)-2-fluorophenyl)-sulfamoyl)-N-methylindoline-6-carboxamide]	6.45
COc1cccc2c1CN(S(=O)(=O)Nc1cccc(-c3nc(C(C)(C)C)sc3-c3ccnc(NC4CCN(S(C)(=O)=O)CC4)n3)c1F)C2 [Example 78, N-(3-(2-(tert-butyl)-5-(2-((1-(methylsulfonyl)-piperidin-4-yl)amino)-pyrimidin-4-yl)thiazol-4-yl)-2-fluoro-phenyl)-4-methoxyisoindoline-2-sulfonamide]	7.18
CC(C)(C)c1nc(-c2cccc(NS(=O)(=O)N3CCc4ccccc43)c2F)c(-c2ccnc(NC3CC4(C3)CS(=O)(=O)C4)n2)s1 [Example 192, N-(3-(2-(tert-butyl)-5-(2-((2,2-dioxido-2-thiaspiro[3.3]heptan-6-yl)amino)-pyrimidin-4-yl)thiazol-4-yl)-2-fluoro-phenyl)indoline-1-sulfonamide]	7.05

Now from value to molecule:

pIC50	SMILES
5.99	CC(C)(C)c1nc(-c2cccc(NS(=O)(=O)N3CCOc4ncccc4C3)c2F)c(-c2ccnc(NC3CCN(S(C)(=O)=O)CC3)n2)s1 [Example 110, N-(3-(2-(tert-butyl)-5-(2-((1-(methylsulfonyl)-piperidin-4-yl)amino)-pyrimidin-4-yl)thiazol-4-yl)-2-fluoro-phenyl)-2,3-dihydropyrido [3,2-f][1,4]-oxazepine-4 (5H)-sulfonamide]
6.18	CC(C)(C)c1nc(-c2cccc(NS(=O)(=O)N3CCc4ccc(C(C)(C)C#N)cc43)c2F)c(-c2ccnc(NC3CC4(C3)CS(=O)(=O)C4)n2)s1 [Example 260, N-(3-(2-(tert-butyl)-S-(2-((2,2-dioxido-2-thiaspiro[3.3]heptan-6-yl)amino)-pyrimidin-4-yl)thiazol-4-yl)-2-fluoro-phenyl)-6-(2-cyanopropan-2-yl)indoline-1-sulfonamide]
7.20	CN1CC2CCC(C1)N2c1nc(-c2cccc(NS(=O)(=O)N3CCc4ccc(C#N)cc43)c2F)c(-c2ccnc(NC3CC4(C3)CS(=O)(=O)C4)n2)s1 [Example 16, 6-cyano-N-(3-(5-(2-((2,2-dioxido-2-thiaspiro[3.3]heptan-6-yl)amino)-pyrimidin-4-yl)-2-(3-methyl-3,8-diazabicyclo[3.2.1]octan-8-yl)thiazol-4-yl)-2-fluorophenyl) indoline-1-sulfonamide]
5.72	CNCCOc1cccc2c1CCN2S(=O)(=O)Nc1cccc(-c2nc(C(C)(C)C)sc2-c2ccnc(NC3CCN(S(C)(=O)=O)CC3)n2)c1F [Example 181, N-(3-(2-(tert-butyl)-5-(2-((1-(methylsulfonyl)-piperidin-4-yl)amino)-pyrimidin-4-yl)thiazol-4-yl)-2-fluoro-phenyl)-4-(2-(methylamino)-ethoxy)-indoline-1-sulfonamide]
5.51	CC1(S(C)(=O)=O)CCC(Nc2nccc(-c3sc(C45CC(C(F)(F)F)(C4)C5)nc3-c3cccc(NS(=O)(=O)N4CCc5ccccc54)c3F)n2)CC1 (stereo not shown) [Example 285, N-(2-fluoro-3-(5-(2-((4-methyl-4-(methylsulfonyl)cyclohexyl)amino)pyrimidin-4-yl)-2-(3-(trifluoromethyl)bicyclo-[1.1.1]pentan-1-yl)thiazol-4-yl)phenyl)-indoline-1-sulfonamide]
6.10	Cn1c(-c2ccc3c(c2)N(S(=O)(=O)Nc2cccc(-c4nc(C(C)(C)C)sc4-c4ccnc(NC5CC6(C5)CS(=O)(=O)C6)n4)c2F)CC3)cccc1=O [Example 220, N-(3-(2-(tert-butyl)-5-(2-((2,2-dioxido-2-thiaspiro[3.3]heptan-6-yl)amino)-pyrimidin-4-yl)thiazol-4-yl)-2-fluoro-phenyl)-6-(1-methyl-6-oxo-1,6-dihydropyridin-2-yl)indoline-1-sulfonamide]
6.96	N#Cc1ccc2c(c1)N(S(=O)(=O)Nc1cccc(-c3nc(N4C5CCC4COC5)sc3-c3ccnc(NC4CC5(C4)CS(=O)(=O)C5)n3)c1F)CC2 [Example 6, N-(3-(2-(3-oxa-8-azabicyclo[3.2.1]octan-8-yl)-5-(2-((2,2-dioxido-2-thiaspiro-[3.3]heptan-6-yl)amino)pyrimidin-4-yl)thiazol-4-yl)-2-fluorophenyl)-6-cyanoindoline-1-sulfonamide]
6.45	CS(=O)(=O)[C@H]1CC[C@H](Nc2nccc(-c3sc(C4(C(F)(F)F)CC4)nc3-c3cccc(NS(=O)(=O)N4CCc5ccc(C(F)(F)F)cc54)c3F)n2)CC1 [Example 282, N-(2-fluoro-3-(5-(2-(((1r,4r)-4-(methylsulfonyl)cyclohexyl)amino)pyrimidin-4-yl)-2-(1-(trifluoromethyl)-cyclopropyl)thiazol-4-yl)phenyl)-6-(trifluoromethyl) indoline-1-sulfonamide]
